According to the SangsterLogP compilation:

Assay: method code SF-AS, from DOI: 10.1021/je900189v

| SMILES | logP |
| --- | --- |
| Cc1cc(Cl)ccc1NS(=O)(=O)c1ccc(N)cc1 | 2.65 |
| Nc1ccc(S(=O)(=O)Nc2cc(Cl)c(Cl)cc2Cl)cc1 | 3.17 |
| CCOc1ccc(NS(=O)(=O)c2ccc([N+](=O)[O-])cc2)cc1 | 2.23 |
| Cc1ccc(NS(=O)(=O)c2ccc(N)cc2)c(Cl)c1 | 2.37 |
| COc1c(Cl)cccc1NS(=O)(=O)c1ccc(N)cc1 | 2.43 |
| CNS(=O)(=O)c1ccc(N)cc1 | 0.07 |
| O=S(=O)(Nc1cccnc1Cl)c1ccccc1 | 1.89 |
| Nc1ccc(S(=O)(=O)Nc2ccc([N+](=O)[O-])cc2Br)cc1 | 1.87 |
| Nc1ccc(S(=O)(=O)Nc2ccccc2Cl)c(Cl)c1 | 2.98 |
| O=[N+]([O-])c1ccc(NS(=O)(=O)c2ccccc2)cc1 | 2.09 |
| O=S(=O)(Nc1cccc(Cl)c1Cl)c1ccccc1 | 3.45 |
| O=[N+]([O-])c1ccc(S(=O)(=O)Nc2nccs2)cc1 | 1.19 |
| CCN(CC)S(=O)(=O)c1ccc(N)cc1 | 1.52 |
| O=S(=O)(Nc1ncccc1Cl)c1ccccc1 | 1.54 |
| Cc1cc(N)ccc1S(=O)(=O)Nc1ccccc1[N+](=O)[O-] | 2.19 |
| O=[N+]([O-])c1ccccc1NS(=O)(=O)c1ccccc1 | 2.08 |
| Cc1ccc(NS(=O)(=O)c2ccc([N+](=O)[O-])cc2)nc1 | 1.01 |
| CC(=O)Nc1ccncc1NS(=O)(=O)c1ccc([N+](=O)[O-])cc1 | 0.71 |
| O=S(=O)(Nc1ccccc1Cl)c1ccccc1 | 2.72 |
| Cc1cc(N)ccc1S(=O)(=O)Nc1ccccc1Cl | 2.66 |

Second part, the compound after the results:

| logP | SMILES |
| --- | --- |
| 2.48 | Nc1ccc(S(=O)(=O)Nc2ccc(Cl)cc2)c(Cl)c1 |
| 3.44 | O=S(=O)(Nc1ccc(Cl)cc1)c1ccccc1 |
| 2.64 | Nc1ccc(S(=O)(=O)Nc2ccc(Cl)c(Cl)c2)cc1 |
| 1.88 | Nc1ccc(S(=O)(=O)Nc2ccc([N+](=O)[O-])cc2)cc1 |
| 2.82 | Nc1ccc(S(=O)(=O)Nc2ccc(I)cc2)cc1 |
| 2.73 | Cc1ccc(Cl)cc1NS(=O)(=O)c1ccc(N)cc1 |
| 1.58 | COc1ccc(NS(=O)(=O)c2ccc(N)cc2)cc1 |
| 2.47 | Nc1ccc(S(=O)(=O)Nc2ccc(Cl)cc2)cc1 |
| 2.73 | Cc1cc(N)ccc1S(=O)(=O)Nc1ccc(Cl)cc1 |
| 2.45 | Nc1ccc(S(=O)(=O)Nc2cc(Cl)ccc2Cl)cc1 |
| 2.92 | Cc1ccc(NS(=O)(=O)c2ccc(N)cc2)cc1Cl |
| 2.62 | CCc1ccc(NS(=O)(=O)c2ccc(N)cc2)cc1 |
